Source: patent publication US12060408B2, “Screening assays, modulators and modulation of activation of Receptor for Advanced Glycation End-products (RAGE)” (Monash University, priority 2017, dated 2024)
Ends that are not written are not given here.

Legend:
[1] = tested on: RAGE; test: Ang II-induced pro-inflammatory signalling (p65-NFκB expression) in AT1R-CHO / RAGE-AT1R-CHO cells; type: cell-based, human; details: pre-treatment with mCherry-S391A-RAGE362-404 0.4 ng/ml; FIG. 10G
[2] = biological target: T1, CCR2 (Mus musculus, UniProt P51683); details: mouse models of multiple sclerosis, renal ischemia-reperfusion injury, ureteric obstruction, diabetic nephropathy; rat model of arthritis; cited from earlier work
T1 construct: host or cells: mouse models (and one rat model) in vivo
T1 sequence (P51683 whole entry, the tested form may be a part): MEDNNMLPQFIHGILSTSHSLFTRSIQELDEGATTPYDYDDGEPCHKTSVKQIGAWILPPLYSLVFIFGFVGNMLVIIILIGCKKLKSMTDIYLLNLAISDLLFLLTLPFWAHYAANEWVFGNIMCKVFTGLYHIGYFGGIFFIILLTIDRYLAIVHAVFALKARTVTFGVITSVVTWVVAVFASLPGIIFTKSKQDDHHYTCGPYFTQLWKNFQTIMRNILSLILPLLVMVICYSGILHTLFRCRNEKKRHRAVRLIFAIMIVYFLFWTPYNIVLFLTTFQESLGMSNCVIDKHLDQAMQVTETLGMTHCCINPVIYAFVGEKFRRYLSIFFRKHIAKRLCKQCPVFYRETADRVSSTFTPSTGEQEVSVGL

[3] = tested on: RAGE ligand-independent activation of RAGE by activated AT1R; test: Ang II-induced NFκB activation (p65 gene expression, SEAP reporter) in AT1R-CHO cells with RAGE constructs; type: cell-based, human; details: summary statement, cell system not given
Description: (§1) Generation of Transgenic Chinese Hamster Ovary Cells
(§2) 100 ng of AT1R-Rluc8 construct was transfected into CHO cells using Lipofectamine 2000 (Thermo). Stable transfectants were selected using G418. AT1R—CHO were then transiently transfected with RAGE constructs using Lipofectamine 2000 (Invitrogen) and incubated for 16 h. The Homo sapiens AGER transcript variant 1 coding sequence (NM_001136) was synthesised and cloned between the NheI and XbaI sites of pCIneo (Promega) to generate the vector pCIneo-RAGE. This plasmid was then used to generate a library of mutant AGER clones (NP_001127). Primers 1-RAGE-SP-5′ and mCherry-XhoI-NotI-3′ were used to amplify the coding sequence of mCherry from the vector pmCherry-C1. The resultant PCR product was then used as template for a second PCR using primers 2-RAGE-SP-5′ and mCherry-XhoI-NotI-3′. The PCR product generated was digested with NheI and NotI and inserted between the NheI and NotI sites of pCIneo to generate pCIneo-SP-mCherry. The sequence of the insert was confirmed by DNA sequencing (Micromon, Monash University). […]
(§3) Cellular Expression of Pro-Inflammatory Markers and Mediators by Quantitative Real-Time PCR
(§4) After 2 hours of exposure to Ang II (1 μM) or the RAGE ligand, S100A8/A9 (5 ng/ml) cells were placed in Trizol, mRNA extracted and cDNA synthesized. Changes in the gene expression of the NFκB subunit, p65 (RelA) or NFκB-activated target genes (e.g ICAM-1, VCAM-1) were estimated by quantitative real-time RT-PCR, performed using the TaqMan system based on real-time detection of accumulated fluorescence (ABI Prism 7700, Perkin-Elmer Inc, PE Biosystems, Foster City, CA, USA). Gene expression was normalized to 18S mRNA and reported as fold change compared to the level of expression in untreated control mice/cells, which were given an arbitrary value of 1.
Oligopeptides (Cherry-TAT (control), mCherry-TAT-RAGE362-404 and mCherry-S391A-TAT-RAGE362-404 were generated by transformation of the Escherichia coli strain ClearColi BL21 (DE3; Lucigen). A single transformed colony was inoculated into 50 ml 2YT medium containing 100 μg/ml ampicillin and the culture was grown overnight at 37° C. with shaking at 250 rev/min. 10 ml overnight culture was used to inoculate 1 litre 2YT medium containing 100 μg/ml ampicillin and the culture was grown at 37° C. with shaking at 250 rev/min. When the cultures reached an OD600 of 0.8, the temperature was shifted to 15° C. for 30 min after which protein expression was induced by the addition of 1 mM isopropyl β-D-1-thiogalacto-pyranoside (IPTG). Following the addition of IPTG the cultures were grown for ˜16 h at 15° C. with shaking at 250 rev/min. Cells were harvested by centrifugation (3500 g, 4° C., 20 min) and resuspended in ice-cold lysis buffer (50 mM Tris pH 7.4, 300 mM NaCl, 10 mM imidazole and 5 mM beta-mercaptoethanol). The resuspended cells were sonicated and insoluble material was pelleted by centrifugation (13 000 g, 4° C., 30 min). The supernatant was filtered (0.2 μm) and applied onto a gravity-flow column with a 1 ml Ni-NTA Agarose resin bed volume (Qiagen) pre-equilibrated with lysis buffer. After the supernatant was passed over the resin, the column was washed with 100 ml of wash buffer (20 mM imidazole, 50 mM Tris pH 7.4, 150 mM NaCl, 5 mM beta-mercaptoethanol). His-tagged TAT-mCherry and TAT-mCherry-RAGE peptides were eluted from the resin using elution buffer (250 mM imidazole, 50 mM Tris pH 7.4, 150 mM NaCl, 5 mM beta-mercaptoethanol). […]

[4] = tested on: murine SVEC; test: Induction of ICAM-1 by Ang II in murine SVEC transfected with RAGE constructs (RT-PCR); type: cell-based, mouse; details: transfected construct (FIG. 12)
Excerpt: FIG. 12A. The effect of transfection of murine SVEC with RAGE or RAGE mutants on the induction of ICAM-1 by Ang II compared to vector alone (pc-Neo) as a control, as measured by RT-PCR. Data are mean±SEM; n=6-8 per group. * vs untreated control, # vs neo+Ang II, p<0.05.
FIG. 12B. The effect of transfection with truncated RAGE mutants on the induction of ICAM-1 by Ang II in murine SVEC to identify the smallest fragments with inhibitory activity. Data are mean±SEM; n=6-8 per group, * vs no treatment control, p<0.05.
FIG. 12D. The effect of transfection with single site-specific alanine or lysine mutants of RAGE370-390 on the induction of ICAM-1 by Ang II in murine SVEC. Data are mean±SEM; n=6-8 per group, * vs no treatment control, p<0.05.
as §3
as §4, with “Gene expression was normalized to 18S mRNA and reported as fold change compared to the level of expression in untreated control mice/cells, which were given an arbitrary value of 1.” left out

[5] = tested on: RAGE ligand-dependent activation of RAGE; test: S100A8/A9-induced NFκB activation (p65 gene expression) in CHO cells expressing RAGE constructs; type: cell-based, human; details: summary statement, cell system not given
Description: as §1, §2, §3, §4
To measure the induction of NFκB activity by 1 μM Ang II, or 5 ng/ml of the RAGE-ligand S100A8/A9 as a signalling control, AT1R—CHO cells were transfected with 0.4 μg of plasmids encoding NFκB-SEAP or β-galactosidase (β-Gal) using Lipofectamine 2000 (Invitrogen) as per manufacturer's instructions. After 24 hours, cells transfected with each plasmid combination were then treated with Ang II (1 μM) or left untreated and incubated for 4 hours before cell supernatants and cell lysates were collected. Cell supernatants were analysed using a chemiluminescent SEAP reporter gene assay (Roche Applied Science) to detect SEAP production after treatment. To control for transfection efficiency, cell lysates were assayed for β-Gal using a commercially available kit (Promega).

[6] = biological target: T2, orexin receptor 1 (OxR1) (Homo sapiens, UniProt O43613); test: Receptor-HIT BRET, β-arrestin2/Venus with RAGE/Rluc8 and orexin receptor 1; type: cell-based
T2 construct: expressed in transfected cells; host or cells: HEK293FT, transient
T2 sequence (O43613 whole entry): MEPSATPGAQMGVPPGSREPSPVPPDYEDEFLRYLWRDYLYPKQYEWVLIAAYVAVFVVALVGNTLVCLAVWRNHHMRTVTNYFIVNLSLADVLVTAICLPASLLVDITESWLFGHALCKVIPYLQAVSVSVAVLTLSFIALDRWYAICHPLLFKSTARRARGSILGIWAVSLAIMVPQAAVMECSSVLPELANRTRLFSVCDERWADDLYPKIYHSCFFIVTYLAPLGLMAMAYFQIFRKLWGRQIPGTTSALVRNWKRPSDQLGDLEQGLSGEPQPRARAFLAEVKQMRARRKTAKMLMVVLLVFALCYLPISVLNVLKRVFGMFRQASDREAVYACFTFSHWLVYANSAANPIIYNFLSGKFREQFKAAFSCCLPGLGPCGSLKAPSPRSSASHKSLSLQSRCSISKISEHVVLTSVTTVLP
T2 sequence (P32121 whole entry partner): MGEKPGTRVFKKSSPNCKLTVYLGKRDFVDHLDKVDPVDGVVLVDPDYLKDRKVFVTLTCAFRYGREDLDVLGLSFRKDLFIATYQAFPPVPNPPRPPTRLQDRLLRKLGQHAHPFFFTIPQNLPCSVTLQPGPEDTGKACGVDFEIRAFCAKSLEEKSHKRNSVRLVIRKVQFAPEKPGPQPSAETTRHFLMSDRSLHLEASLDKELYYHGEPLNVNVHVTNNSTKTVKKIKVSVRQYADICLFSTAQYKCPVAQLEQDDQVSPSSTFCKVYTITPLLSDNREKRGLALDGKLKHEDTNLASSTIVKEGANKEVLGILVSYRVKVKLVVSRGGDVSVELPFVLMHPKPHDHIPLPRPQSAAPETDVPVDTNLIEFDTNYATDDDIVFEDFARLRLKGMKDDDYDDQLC
Excerpt: (§5) Bioluminescence Resonance Energy Transfer (BRET)
(§6) BRET is an established technology for studying protein-protein proximity in live cells, particularly involving GPCRs (Pfleger and Eidne, 2006). One protein of interest was linked to a bioluminescent donor enzyme, Rluc8, a variant of Renilla luciferase, and a second linked to an acceptor fluorophore, Venus, a variant of green fluorescent protein. If in close proximity (<10 nm), energy resulting from the rapid oxidation of a cell-permeable coelenterazine substrate by the donor can transfer to the acceptor, which in turn fluoresces at a longer characteristic wavelength.
(§7) Plasmids were transiently co-expressed in human embryonic kidney (HEK) 293FT cells and BRET measurements taken at 37° C. using a POLARstar Omega or LUMIstar plate reader (BMG Labtech, Mornington, Victoria, Australia) with 460-490 nm (‘donor emission’) and 520-550 nm (‘acceptor emission’) filters, or a VICTOR Light plate reader (Perkin Elmer, Glen Waverley, Victoria, Australia) with 400-475 nm (‘donor emission’) and 520-540 nm (‘acceptor emission’) filters, or a CLARIOstar plate reader (BMG Labtech, Mornington, Victoria, Australia) with 420-480 nm (‘donor emission’) and 520-620 nm (‘acceptor emission’) filters. […]
(§8) For BRET kinetic assays, the final pre-treatment reading is presented at the zero time point (time of ligand/vehicle addition). […]

[7] = tested on: TRH receptor 1 (TRHR1); test: Receptor-HIT BRET, β-arrestin2/Venus with RAGE/Rluc8 and TRH receptor 1; type: cell-based
Excerpt: as §5, §6, §7, §8

[8] = biological target: T3, CCR2 (Homo sapiens, UniProt P41597); test: Receptor-HIT BRET, β-arrestin2/Venus with RAGE/Rluc8 and CCR2; type: cell-based
T3 construct: expressed in transfected cells; host or cells: HEK293FT, transient
T3 sequence (P41597 whole entry): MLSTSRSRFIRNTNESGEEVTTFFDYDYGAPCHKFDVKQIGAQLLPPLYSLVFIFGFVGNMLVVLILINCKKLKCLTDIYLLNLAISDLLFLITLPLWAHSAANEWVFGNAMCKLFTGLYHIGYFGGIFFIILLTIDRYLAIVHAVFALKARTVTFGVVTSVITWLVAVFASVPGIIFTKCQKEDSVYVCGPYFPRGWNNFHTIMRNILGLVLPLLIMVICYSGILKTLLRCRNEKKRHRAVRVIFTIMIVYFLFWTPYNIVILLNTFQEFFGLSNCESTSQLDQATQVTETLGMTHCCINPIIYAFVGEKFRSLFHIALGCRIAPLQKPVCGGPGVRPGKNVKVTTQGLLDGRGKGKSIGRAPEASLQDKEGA
T3 sequence (P32121 whole entry partner): as the sequence (P32121 whole entry partner) above
Excerpt: as §5, §6, §7, §8

[9] = biological target: T4, CCR4 (Homo sapiens, UniProt P51679); test: Receptor-HIT BRET, β-arrestin2/Venus with RAGE/Rluc8 and CCR4; type: cell-based
T4 construct: expressed in transfected cells; host or cells: HEK293FT, transient
T4 sequence (P51679 whole entry): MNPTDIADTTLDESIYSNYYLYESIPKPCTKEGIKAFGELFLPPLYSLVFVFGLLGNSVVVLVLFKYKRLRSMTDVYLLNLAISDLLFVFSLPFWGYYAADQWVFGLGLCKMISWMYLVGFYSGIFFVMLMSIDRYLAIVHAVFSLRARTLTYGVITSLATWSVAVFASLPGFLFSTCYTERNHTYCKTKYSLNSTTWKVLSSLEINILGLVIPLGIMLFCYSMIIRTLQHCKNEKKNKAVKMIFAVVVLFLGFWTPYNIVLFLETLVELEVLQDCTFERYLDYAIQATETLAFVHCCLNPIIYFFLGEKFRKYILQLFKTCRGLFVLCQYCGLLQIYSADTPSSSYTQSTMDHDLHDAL
T4 sequence (P32121 whole entry partner): as the sequence (P32121 whole entry partner) above
Excerpt: as §5, §6
Plasmids were transiently co-expressed in human embryonic kidney (HEK) 293FT cells and BRET measurements taken at 37° C. using a POLARstar Omega or LUMIstar plate reader (BMG Labtech, Mornington, Victoria, Australia) with 460-490 nm (‘donor emission’) and 520-550 nm (‘acceptor emission’) filters, or a VICTOR Light plate reader (Perkin Elmer, Glen Waverley, Victoria, Australia) with 400-475 nm (‘donor emission’) and 520-540 nm (‘acceptor emission’) filters, or a CLARIOstar plate reader (BMG Labtech, Mornington, Victoria, Australia) with 420-480 nm (‘donor emission’) and 520-620 nm (‘acceptor emission’) filters.
The BRET ratio was calculated by subtracting the ratio of ‘acceptor emission’ over ‘donor emission’ for a cell sample expressing Rluc8-tagged protein alone from the same ratio for a cell sample expressing both Rluc8 and Venus-tagged proteins. Alternatively, the ligand-induced BRET signal was calculated by subtracting the ratio of ‘acceptor emission’ over ‘donor emission’ for a vehicle-treated cell sample from the same ratio for a second aliquot of the same cells treated with agonist.
For BRET kinetic assays, the final pre-treatment reading is presented at the zero time point (time of ligand/vehicle addition). For the saturation assay, fluorescence after light excitation was measured on an EnVision 2102 multi-label plate reader (PerkinElmer, Glen Waverley, Victoria, Australia) using a 485/14 excitation filter, 535/25 emission filter and D505 mirror. […]

RAGE370-404: N-truncated RAGE peptide without the charged patch Diaph1 binding domain (GEERKAPENQEEEEERAELNQSEEPEAGESSTGGP; UniProt Q15109 370-404, looked up, fragment)
overcoming the inhibition of transactivation conferred by mCherry-S391A-RAGE362-404 [1]: able to overcome the inhibition

Cc1ccc2c(c1)C1(CCN(CCc3nc(-c4ccccc4)oc3C)CC1)OC(=O)N2 [RS-504393]
inflammation [2]: suppress inflammation

Q379EEEEERAELNQ390 (QEEEEERAELNQ; listed as Homo sapiens) [RAGE379-390]
inhibition of RAGE ligand-independent activation of wild-type RAGE by activated AT1R [3]: inhibiting
inhibition of Ang II-induced ICAM-1 (acting on wild type RAGE) [4]: does not result in a loss of function
inhibition of RAGE ligand-dependent activation of wild-type RAGE (S100A8/A9) [5]: inhibiting

O=C(O)C[CH2][Ge](=[O])[O][Ge](=[O])[CH2]CC(=O)O [propagermanium, 3-[(2-Carboxyethyl-oxogermyl)oxy-oxogermyl]propanoic acid]
inflammation [2]: suppress inflammation

Orexin A (QPLPDCCRQKTCSCRLYELLHGAGNHAAGILTL; not fully specified (residue 1, C-terminus, bridges); cysteine pairing not given here; UniProt O43612 34-66, looked up) [OxA]
recruitment of βarrestin2/Venus to OxR1/Rluc8 ([6]; control): recruitment
recruitment of β-arrestin2/Venus proximal to RAGE/Rluc8 ([6]; in the presence of OxR1): recruitment

R366A-Q367A-RAGE362-404: mutated RAGE cytosolic tail peptide in which the charged patch is altered (LWQRAARRGEERKAPENQEEEEERAELNQSEEPEAGESSTGGP; cytosolic tail peptide; UniProt Q15109 362-404, looked up, variant R366A Q367A)
overcoming the inhibition of transactivation conferred by mCherry-S391A-RAGE362-404 [1]: able to overcome the inhibition

Thyrotrophin-releasing hormone [TRH]
recruitment of βarrestin2/Venus to TRHR1/Rluc8 ([7]; control): recruitment
recruitment of β-arrestin2/Venus proximal to RAGE/Rluc8 ([7]; in the presence of TRHR1): weak recruitment

RAGE385-390: N-truncated RAGE construct eliminating both 380 and 384 (RAELNQ; UniProt Q15109 385-390, looked up, fragment)
inhibition of Ang II-induced ICAM-1 (acting on wild type RAGE) [4]: loss of the modulatory actions

CCO[C@H]1CN(C2CCC(O)(c3ccc4c(c3)OCO4)CC2)C[C@@H]1NC(=O)CNC(=O)c1cccc(C(F)(F)F)c1 (stereo partly drawn) [INCB3344]
inflammation [2]: suppress inflammation

CCL2: monocyte chemotactic protein-1, cognate ligand of CCR2
recruitment of βarrestin2/Venus to CCR2/Rluc8 ([8]; control): recruitment
recruitment of β-arrestin2/Venus proximal to RAGE/Rluc8 ([8]; in the presence of CCR2): recruitment

B1: CCL22: chemokine ligand used to activate CCR4 (protein)
chain: GPYGANMEDSVCCRDYVRYRLPLRVVKHFYWTSDSCPRPGVVLLTFRDKEICADPRVPWVKMILNKLSQ
recruitment of βarrestin2/Venus to CCR4/Rluc8 ([9]; control): recruitment
recruitment of β-arrestin2/Venus proximal to RAGE/Rluc8 ([9]; in the presence of CCR4): not and Lack of
BRET signal between Gαi/Nluc and Gγ2/Venus ([9]; untagged CCR4 co-expressed): observed
